Results reported in patent publication US5159081A, “Intermediates of peripherally selective N-carbonyl-3,4,4-trisubstituted piperidine opioid antagonists” (Eli Lilly and Company, priority 1991, dated 1992).
Counter-ions that a name gives are not always drawn. Like-named read-outs stand apart in the source and are kept apart here.

How the values were obtained:
[1] = biological target: T1, opioid receptor (Mus musculus, UniProt P42866); assay: in vivo; design: species or system CF-1 male mice; conditions: sc
T1 construct: Five CF-1 male mice (Charles River, Portage, MI); from tissue; host or cells: living CF-1 male mice (whole animal, endogenous receptor)

[2] = biological target: T2, mu receptor (Rattus norvegicus, UniProt P33535); assay: Naloxone [3H] opioid receptor binding assay (mu receptor); design: species or system rat (male Sprague Dawley); conditions: 20 min; for Ki: rat whole brain minus cerebellum, pH 7.4, 37° C., read-out: Ki
T2 construct: The brain tissue, rat whole brain minus cerebellum for mu was homogenized; from tissue; host or cells: brain minus cerebellum of male Sprague Dawley rats, homogenate fraction

[3] = system: peripheral opioid receptors; assay: mouse diarrhea test: precipitated diarrhea in morphine-maintained mice (peripheral opioid activity); assay type: in vivo
[4] = mouse writhing test, […], s.c. 20 min before acetic acid, read-out: AD50 (the source's name)
[5] = pH 7.4, read-out: % displacement at 10 nM
[6] = pH 7.4, read-out: % displacement at 100 nM
[7] = AD50 mouse writhing / ED50 mouse diarrhea, higher = greater relative peripheral antagonism
[8] = mouse writhing test, dose of antagonist that reduced inhibition of writhing by 1.25 mg/kg morphine sulfate to 50%, s.c. 20 min before acetic acid, read-out: AD50 (the source's name)
[9] = pH 7.4, 100 nM test compound, [3H]naloxone 0.5 nM, […], read-out: % displacement at 100 nM

T2 sequence (P33535 whole entry): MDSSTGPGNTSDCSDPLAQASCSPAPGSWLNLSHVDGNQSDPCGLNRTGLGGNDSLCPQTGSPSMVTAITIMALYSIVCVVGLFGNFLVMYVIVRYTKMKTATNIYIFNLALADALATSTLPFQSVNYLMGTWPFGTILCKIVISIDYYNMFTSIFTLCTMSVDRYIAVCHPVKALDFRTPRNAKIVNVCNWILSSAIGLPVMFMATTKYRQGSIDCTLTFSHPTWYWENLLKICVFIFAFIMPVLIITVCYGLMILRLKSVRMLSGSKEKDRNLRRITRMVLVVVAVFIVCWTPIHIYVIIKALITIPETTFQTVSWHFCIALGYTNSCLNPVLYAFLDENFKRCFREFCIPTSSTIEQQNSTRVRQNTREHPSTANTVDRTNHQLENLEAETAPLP
T1 sequence (P42866 whole entry): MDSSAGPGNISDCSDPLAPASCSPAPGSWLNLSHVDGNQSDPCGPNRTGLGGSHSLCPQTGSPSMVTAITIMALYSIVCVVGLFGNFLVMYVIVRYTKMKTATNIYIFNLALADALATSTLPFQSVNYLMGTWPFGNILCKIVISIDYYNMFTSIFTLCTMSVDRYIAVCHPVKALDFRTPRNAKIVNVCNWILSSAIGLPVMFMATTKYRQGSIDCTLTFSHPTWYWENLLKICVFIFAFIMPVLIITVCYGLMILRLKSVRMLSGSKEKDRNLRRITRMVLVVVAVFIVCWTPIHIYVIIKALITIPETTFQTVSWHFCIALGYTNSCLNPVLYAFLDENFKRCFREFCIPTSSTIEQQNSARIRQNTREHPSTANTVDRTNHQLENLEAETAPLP

| SMILES | ED50 [1, 4] [mg/kg] | inhibition at 0.01 µM [2, 5] [%] | inhibition at 0.1 µM [2, 6] [%] | Ki ([2]; […], [3H]naloxone 0.5 nM) [nM] | Ratio (ratio of AD50 to ED50) [3, 7] | ED50 [1, 8] [mg/kg] | inhibition at 0.01 µM ([2]; pH 7.4, 10 nM test compound, [3H]naloxone 0.5 nM, mu receptor, read-out: % displacement at 10 nM) [%] | inhibition at 0.1 µM ([2]; pH 7.4, 100 nM test compound, [3H]naloxone 0.5 nM, mu receptor, read-out: % displacement at 100 nM) [%] | inhibition at 0.1 µM [2, 9] [%] | Ratio (ratio of AD50 to ED50) ([3]; mouse, in vivo) | ED50 ([1]; mouse, read-out: AD50) [mg/kg] |
| --- | --- | --- | --- | --- | --- | --- | --- | --- | --- | --- | --- |
| C[C@H]1CN(CC(Cc2ccccc2)NC(=O)CCC(=O)O)CC[C@@]1(C)c1cccc(O)c1 (stereo partly drawn) [Example 14] | 21 | 20 | 64 | 32.4 | 656 |  |  |  |  |  |  |
| CC(=O)NC(CCN1CC[C@@](C)(c2cccc(O)c2)[C@@H](C)C1)c1ccccc1 (stereo in doubt) [Example 6, N-(3-(trans-4-(3-hydroxyphenyl)-3,4-dimethyl-1-piperidinyl)-1-phenylpropyl)acetamide] | 30 | 82 | 94 | 6.49 | 428 |  |  |  |  |  |  |
| C[C@H]1CN(CCN(C(=O)CCC(=O)O)C2CCCCC2)CC[C@@]1(C)c1cccc(O)c1 (relative stereo) [Example 22, 4-(Cyclohexyl-(2-(trans-4-(3-hydroxyphenyl)-3,4-dimethyl-1-piperidinyl)ethyl)amino)-4-oxobutanoic acid monohydrate] |  | 51 | 93 | 3.59 | 63 | 1.25 |  |  |  |  |  |
| C[C@H]1CN(CCC(CC2CCCCC2)NC(=O)CCCC(=O)O)CC[C@@]1(C)c1cccc(O)c1 (stereo in doubt) [Example 7, 5-((1-(cyclohexylmethyl)-3-(trans-4-(3-hydroxyphenyl)-3,4-dimethyl-1-piperidinyl)propyl)amino)-5-oxopentanoic acid monohydrochloride monohydrate] | 8.62 | 99 | 100 | 0.63 | 19 |  |  |  |  |  |  |
| C[C@H]1CN(CCC(NC(=O)CCCC(=O)O)C2CCCCC2)CC[C@@]1(C)c1cccc(O)c1 (stereo in doubt) [Example 5, 5-((3-(trans-4-(3-hydroxyphenyl)-3,4-dimethyl-1-piperidinyl)-1-cyclohexylpropyl)amino)-5-oxo-pentanoic acid monohydrochloride monohydrate] | > 20 | 100 | 100 | 0.3 | > 1666 |  |  |  |  |  |  |
| C[C@H]1CN(CCN(CC2CCCCC2)C(=O)CCC(=O)O)CC[C@@]1(C)c1cccc(O)c1 (relative stereo) [Example 26, 4-(cyclohexylmethyl-(2-(trans-4-(3-hydroxyphenyl)-3,4-dimethyl-1-piperidinyl)ethyl)amino)-4-oxobutanoic acid monohydrate] | 3.6 | 73 | 100 | 1.91 | 72 |  |  |  |  |  |  |
| COC(=O)[C@H](Cc1ccccc1)NC(=O)CCC(=O)N(CCN1CCC(C)(c2cccc(O)c2)C(C)C1)C1CCCCC1 (stereo partly drawn) [Example 41, 2-((1,4-dioxo-4-(cyclohexyl-(2-(trans-4-(3-hydroxyphenyl)-3,4-dimethyl-1-piperidinyl)ethyl)amino)butyl)-amino)-3-phenylpropanoic acid, methyl ester] | 32 | 87 | 99 | 2.45 | 74 |  |  |  |  |  |  |
| C[C@H]1CN(CCN(C(=O)CCCC(=O)O)C2CCCCC2)CC[C@@]1(C)c1cccc(O)c1 (relative stereo) [Example 23, 5-(Cyclohexyl-(2-(trans-4-(3-hydroxyphenyl)-3,4-dimethyl-1-piperidinyl)ethyl)amino)-5-oxopentanoic acid monohydrate] |  | 77 | 100 | 4.38 | > 5 | > 1.25 |  |  |  |  |  |
| CCOC(=O)CCCC(=O)NC(CCN1CC[C@@](C)(c2cccc(O)c2)[C@@H](C)C1)CC(C)C (single isomer, unassigned) [Example 3A, 5-((1-(2-(trans-4-(3-hydroxyphenyl)-3,4-dimethyl-1-piperidinyl)ethyl)-3-methylbutyl)amino)-5-oxopentanoic acid ethyl ester monohydrochloride] | 14.2 | 100 | 100 | 0.3 | 89 |  |  |  |  |  |  |
| C[C@H]1CN(CCCN(C(=O)CCCC(N)=O)C2CCCCC2)CC[C@@]1(C)c1cccc(O)c1 (relative stereo) [Example 37, N-(3-(trans-4-(3-hydroxyphenyl)-3,4-dimethyl-1-piperidinyl)propyl)-N-cyclohexylpentanediamide monohydrochloride monohydrate] | 12.8 | 88 | 100 | 0.61 | 256 |  |  |  |  |  |  |
| C[C@H]1CN(CCCN(CC2CCCCC2)C(=O)CCCC(=O)O)CC[C@@]1(C)c1cccc(O)c1 (relative stereo) [Example 27, Trans-5-(cyclohexylmethyl(3-(4-(3-hydroxyphenyl)-3,4-dimethyl-1-piperidinyl)propyl)amino)-5-oxopentanoic acid monohydrate] | 11 | 63 | 93 | 8 | 61 |  |  |  |  |  |  |
| CCOC(=O)CCCC(=O)NC(CCN1CC[C@@](C)(c2cccc(O)c2)[C@@H](C)C1)CC(C)C (stereo in doubt) [Example 3B, 5-((1-(2-(trans-4-(3-hydroxyphenyl)-3,4-dimethyl-1-piperidinyl)ethyl)-3-methylbutyl)amino)-5-oxopentanoic acid ethyl ester monohydrochloride] | 15.5 | 93 | 99 | 0.86 | 111 |  |  |  |  |  |  |
| CC(=O)OC(C)OC(=O)CCCC(=O)N[C@@H](CC1CCCCC1)CN1CC[C@@](C)(c2cccc(O)c2)[C@@H](C)C1 (stereo partly drawn) [Example 67] | > 40 |  |  |  |  |  | 73 | 95 |  |  |  |
| CCCOC(=O)CCC(=O)N(CCN1CC[C@@](C)(c2cccc(O)c2)[C@@H](C)C1)C1CCCCC1 (relative stereo) [Example 31, 4-(Cyclohexyl-(2-(trans-4-(3-hydroxyphenyl)-3,4-dimethyl-1-piperidinyl)ethyl)amino)-4-oxobutanoic acid propyl ester] | > 40 | 82 |  | 2.52 | > 200 |  |  |  | 97 |  |  |
| CC(C)OC(=O)CCC(=O)N(CCN1CC[C@@](C)(c2cccc(O)c2)[C@@H](C)C1)C1CCCCC1 (relative stereo) [Example 30, 4-(Cyclohexyl-(2-(trans-4-(3-hydroxyphenyl)-3,4-dimethyl-1-piperidinyl)ethyl)amino)-4-oxobutanoic acid 1-methyl-ethyl ester] | 12.4 | 79 | 96 | 11 | > 40 |  |  |  |  |  |  |
| CC(C)CC(=O)NCCCC(=O)N(CCN1CC[C@@](C)(c2cccc(O)c2)[C@@H](C)C1)C1CCCCC1 (relative stereo) [Example 40, hydrochloride] | 2.2 | 87 | 100 | 1.16 |  |  |  |  |  | 3 |  |
| C[C@H]1CN(CCN(C(=O)CCCC(=O)O)c2ccccc2)CC[C@@]1(C)c1cccc(O)c1 (relative stereo) [Example 20, Trans-5-(phenyl-(2-(4-(3-hydroxyphenyl)-3,4-dimethyl-1-piperidinyl)ethyl)amino)-5-oxopentanoic acid monohydrate] |  | 95 | 99 |  |  |  |  |  |  | 35 | 2.1 |
| CCOC(=O)CCCC(=O)N[C@@H](CC1CCCCC1)CN1CC[C@](C)(c2cccc(O)c2)[C@H](C)C1 [Example 51] | > 40 | 73 | 97 |  |  |  |  |  |  |  |  |
| C[C@H]1CN(CCCN(C(=O)CCCC(=O)O)C2CCCCC2)CC[C@@]1(C)c1cccc(O)c1 (relative stereo) [Example 25, 5-(cyclohexyl-(3-(trans-4-(3-hydroxyphenyl)-3,4-dimethyl-1-piperidinyl)propyl)amino)-5-oxopentanoic acid] | 0.61 | 77 | 93 | 1.18 | 10 |  |  |  |  |  |  |
| CNC(=O)CNC(=O)CC(=O)N(CCN1CC[C@@](C)(c2cccc(O)c2)[C@@H](C)C1)C1CCCCC1 (relative stereo) [Example 38, N-cyclohexyl-N-(2-(trans-4-(3-hydroxyphenyl)-3,4-dimethyl-1-piperidinyl)ethyl)-N'-(2-(methylamino)-2-oxoethyl)propanediamide monohydrochloride] | 28.9 | 79 |  | 2.98 | 1605 |  |  |  | 98 |  |  |
| C[C@H]1CN(C[C@H](CC2CCCCC2)NC(=O)CCCC(=O)OCC(=O)N(C)C)CC[C@@]1(C)c1cccc(O)c1 [Example 64] | 13.5 | 81 | 94 | 1.51 |  |  |  |  |  |  |  |
